# Several values for one entry are separate records, joined by “and”; a condition that tells them apart may be missing. Equal values may be shown once.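 How tested: cells in 96-well plates exposed to compound for 48 hours at five concentrations. At the GI50, growth is halved. TGI denotes the concentration required for complete inhibition of growth.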 Where a SMILES comes first, the peptide text is derived from it. [ ]: non-standard residue; d: D form. The star is where a group is joined. Bn2Val = CC(C)[C@@H](C(=O)*)N(Cc1ccccc1)Cc1ccccc1; NH(3,4-diMeO-benzyl) = COc1ccc(CN*)cc1OC; NMeV = CN[C@H](C(=O)O)C(C)C; dNMeA = CN[C@H](C)C(=O)O
# Assays:
# Test in all cases: DTP human tumour cell line panel, 48 h
# [1] = tested on: MDA-MB-231 breast
# [2] = tested on: XF 498 CNS
# [3] = tested on: M19-MEL melanoma
# [4] = tested on: DU-145 prostate
# [5] = tested on: T-47D breast
# [6] = tested on: MDA-MB-435
# [7] = tested on: DMS 273 small cell lung
# [8] = tested on: HS 578T breast
# [9] = tested on: BT-549 breast
# [10] = tested on: SNB-78 CNS
SMILES,TGI [1],TGI [2],TGI [3],TGI [4],TGI [5],TGI [6],TGI [7],TGI [9],TGI [10] [µM],further results
O=C(O)CCCc1ccc(N(CCCl)CCCl)cc1,334 µM and 606 µM,31.9 µM and 158 µM,51.8 µM and 238 µM,590 µM and 191 µM,333 µM and 292 µM,270 µM and 242 µM,28 µM and 161 µM,290 µM and 289 µM,–,GI50 [1]: 265 µM; GI50 [2]: 12.1 µM; GI50 [3]: 22.3 µM; GI50 [4]: 41.7 µM; GI50 [5]: 27.3 µM; GI50 [6]: 173 µM; GI50 [7]: 3.84 µM; TGI [8]: 570 µM and 312 µM
O=C(O)c1cc(S(=O)(=O)N=NC=C2c3ccccc3N(O)c3ccccc32)ccc1O,–,–,58.6 µM,–,–,–,34.6 µM,–,96.5,–
O=C1/C(=C/c2ccccc2)CN(C(=O)Oc2ccc(Cl)cc2)C/C1=C\c1ccccc1,–,5.71 µM,2.41 µM,–,–,–,4.18 µM,–,> 26.8,–
O=C(N/N=C/c1cccc(O)c1O)N/N=C/c1cccc(O)c1O,–,> 100 µM,> 100 µM,–,–,–,65.2 µM,–,> 100,–
Cc1c(C(=O)/C=C/c2cccc3ccccc23)[n+](=O)c2ccccc2n1[O-],–,–,26.4 µM,–,–,–,24.5 µM,–,47.8,–
O=c1c(Cl)c(Cl)cnn1-c1ccccc1,3.34 µM,5.47 µM,11.7 µM and 8.03 µM,28 µM and 27.8 µM,16.4 µM and 5.04 µM,3.58 µM and 3.73 µM,3.94 µM and 12.4 µM,3.12 µM and 3.19 µM,20.8,GI50 [7]: 2.03 µM and 5.59 µM; TGI [8]: 7.02 µM and 20.3 µM
C#CC(C)(C)Oc1cc(O)c2c(=O)c3ccccc3n(C)c2c1,–,> 100 µM,–,–,–,–,> 100 µM,–,> 100,–
COc1cc2c(c(O)c1C)C(=O)C(Cl)=CC2=O,27.8 µM,35.2 µM,20.9 µM,13.3 µM,5.22 µM,16.4 µM,34.5 µM,18.4 µM,17.4,TGI [8]: 97.4 µM
CC(=O)/C=C/c1cccc(N=S)c1,–,> 100 µM,18.3 µM,–,–,–,20.9 µM,–,> 100,–
O=S(=O)(O)C(O)/C=C/c1ccccc1 (stereo unspecified),–,–,> 100 µM,–,–,–,> 100 µM,–,–,–
Cc1cc(C)nc(NS(=O)(=O)c2ccc(NC(=O)c3cccc4c(=O)c5ccccc5[nH]c34)cc2)n1,–,40.6 µM,–,–,–,–,48.4 µM,–,48.6,–
COc1cc2c(cc1O)[C@H](Cc1ccc(Oc3cc(C[C@H]4c5cc(OC)c(OC)cc5CCN4C)ccc3OC)cc1)NCC2,–,24 µM,49.2 µM,–,–,–,43.2 µM,–,–,–
COC(=O)C(CC(=O)c1cc2c(cc1I)OCO2)Cc1cc(OC)c(OC)c(OC)c1I (stereo unspecified),–,> 100 µM,> 100 µM,–,–,–,> 100 µM,–,–,–
CC1=C[C@@H]2Cc3occc3C(C)(C)[C@@H]2CC1,–,29.3 µM,31.2 µM,–,–,–,26.8 µM,–,66.6,–
CC1(C)N=C(N)N=C(N)N1c1ccc(CCCCc2ccc(S(=O)(=O)F)cc2Cl)c(Cl)c1,82.3 µM,3 µM,–,90.4 µM,34.8 µM,> 500 µM,–,14.5 µM,48.6,TGI [8]: > 500 µM
O=c1[nH]c(=O)n(C2CC(O)C(CO)O2)cc1C#Cc1c(F)c(F)c(F)c(F)c1F (stereo unspecified),–,–,> 100 µM,–,–,–,> 100 µM,–,–,–
CN(C)CCNC(=O)c1cccc2nc3c(Cl)cccc3nc12,–,11.7 µM,13.1 µM,–,–,–,> 100 µM,–,–,–
COc1ccc(/C=C(/C(=O)O)c2cc(OC)c(OC)c(OC)c2)cc1,–,–,> 100 µM,–,–,–,> 100 µM,–,> 100,–
C[C@]12CCC(=O)C=C1CC[C@@H]1C2CC[C@]2(C)NC(=O)C(C#N)CC12 (stereo partly specified),–,> 100 µM,> 100 µM,–,–,–,> 100 µM,–,> 100,–
O=C1CC[C@H]2CNC(=O)C[C@H]2C1,–,> 100 µM,> 100 µM,–,–,–,> 100 µM,–,> 100,–
CC1=CCCC(OC(N)=O)C1 (stereo unspecified),–,> 100 µM,> 100 µM,–,–,–,> 100 µM,–,> 100,–
"COc1ccc(CNC(=O)[C@@H](C)N(C)C(=O)[C@@H]2CCCN2C(=O)[C@H](C(C)C)N(C)C(=O)[C@@H](NC(=O)[C@H](C(C)C)N(Cc2ccccc2)Cc2ccccc2)C(C)C)cc1OC (Bn2Val-V[NMeV]P[dNMeA]-{NH(3,4-diMeO-benzyl)})",18.8 µM and 22.7 µM,–,–,50 µM and 42.3 µM,50 µM and 81.1 µM,19.7 µM and 24.1 µM,–,15.1 µM and 27.1 µM,–,GI50 [1]: 10.8 µM; GI50 [6]: 11.1 µM; GI50 [8]: 19.5 µM; GI50 [9]: 9.43 µM
COc1ccc(N=Cc2cc(OC)c(OC)c(OC)c2)cc1,–,> 100 µM,> 100 µM,–,–,–,> 100 µM,–,> 100,GI50 [7]: 33 µM
C1CN2N3CCCC23C1 (stereo unspecified),–,> 100 µM,> 100 µM,–,–,–,> 100 µM,–,> 100,–
CN1CCCNCCN(CCc2ccccn2)CCCN(C)CC1,–,> 100 µM,> 100 µM,–,–,–,81.5 µM,–,> 100,–
CCC1CCC2CCCC(C)N12 (stereo unspecified),–,> 100 µM,> 100 µM,–,–,–,> 100 µM,–,–,–

SMILES,TGI [1],TGI [2],TGI [3],TGI [4],TGI [5],TGI [6],TGI [7],TGI [9],TGI [10] [µM],further results
CC(C)(C)C1=NC(S)NC(CCC(=O)Nc2ccccc2[N+](=O)[O-])=C1 (stereo unspecified),–,–,> 100 µM,–,–,–,–,–,> 100,–
c1ccc(-c2nnc(-c3nn(-c4ccccc4)c4nc5ccccc5nc34)o2)cc1,–,61 µM,> 100 µM,–,–,–,> 100 µM,–,> 100,–
CC(=O)OCCc1cccnc1/C=N/O,–,> 100 µM,> 100 µM,–,–,–,> 100 µM,–,> 100,–
O=C(O/N=C1/CCC/C1=C\c1ccccc1)c1ccc([N+](=O)[O-])cc1,–,–,> 100 µM,–,–,–,> 100 µM,–,> 100,–
COC(=O)c1c2c(c(C)[n+]([O-])c1C)C(=O)C=CC2=O,8.28 µM,–,–,3.22 µM,7.26 µM,3.31 µM,–,3.14 µM,–,GI50 [1]: 2.68 µM; GI50 [4]: 1.82 µM; GI50 [5]: 1.97 µM; GI50 [6]: 1.79 µM; GI50 [8]: 2.84 µM; TGI [8]: 8.64 µM; GI50 [9]: 1.72 µM
O=C1CCC(NC(=O)c2ccccc2)C(=O)N1 (stereo unspecified),> 100 µM,–,–,> 100 µM,> 100 µM,> 100 µM,–,> 100 µM,–,TGI [8]: > 100 µM
Fc1ccc(-c2nn(-c3ccccc3)cc2-c2nc3ccccc3o2)cc1,67.3 µM,–,–,19.4 µM,> 100 µM,3.41 µM,–,21.4 µM,–,GI50 [1]: 8.47 µM; GI50 [4]: 5.65 µM; GI50 [5]: 37.3 µM; GI50 [6]: 1.79 µM; GI50 [8]: 6.48 µM; TGI [8]: 66.5 µM; GI50 [9]: 2.97 µM
CCCNC(=O)OCc1c(COC(=O)NCCC)c(-c2ccc(Cl)c(Cl)c2)n2c1CCC2,21.9 µM,–,–,> 100 µM,> 100 µM,29.8 µM,–,15.9 µM,–,TGI [8]: 26.2 µM
NC1(CCCCCCCCCCC(=O)O)CNCCNCCNCCNC1,–,–,> 100 µM,–,–,–,–,–,–,–
Clc1cccc(NC=Nc2ccc(-c3nc4ccccc4s3)cc2)c1,23.6 µM,–,–,38.8 µM,39 µM,32.7 µM,–,> 50 µM,–,GI50 [1]: 9.72 µM; GI50 [4]: 16.4 µM; GI50 [5]: 10.8 µM; GI50 [6]: 14.3 µM; GI50 [8]: 32.6 µM; TGI [8]: > 50 µM; GI50 [9]: 23.3 µM
COc1cc([C@@H]2c3cc4c(cc3[C@@H](NC(=O)c3cccc([N+](=O)[O-])c3)C3COC(=O)[C@@H]32)OCO4)cc(OC)c1O (stereo partly specified),–,–,> 100 µM,–,–,–,> 100 µM,–,> 100,–
Cc1cccc2c3ccc4c(c3n(C)c12)C(=O)C=CC4=O,–,–,> 100 µM,–,–,–,> 100 µM,–,> 100,–
O=C(Nc1ccccc1[N+](=O)[O-])c1ccccc1,–,> 100 µM,> 100 µM,–,–,–,> 100 µM,–,> 100,–
CCCCn1/c(=N/C(=S)N(C)C)ss/c1=N\C(=S)N(C)C,–,> 100 µM,> 100 µM,–,–,–,> 100 µM,–,> 100,–
ClCc1ccccc1CSc1ncnc2nc[nH]c12,> 60 µM,–,–,> 60 µM,> 60 µM,> 60 µM,–,> 60 µM,–,GI50 [1]: > 60 µM; GI50 [4]: > 60 µM; GI50 [5]: > 60 µM; GI50 [6]: > 60 µM; GI50 [8]: > 60 µM; TGI [8]: > 60 µM; GI50 [9]: > 60 µM
COc1ccc(CN2CCCC(C(=O)c3ccc(C(F)(F)F)cc3)C2)c(O)c1 (stereo unspecified),32 µM,–,–,> 100 µM,80.1 µM,83.3 µM,–,71.9 µM,–,GI50 [1]: 13.6 µM; GI50 [4]: 53.9 µM; GI50 [5]: 22.1 µM; GI50 [6]: 23.4 µM; GI50 [8]: 24.7 µM; TGI [8]: > 100 µM; GI50 [9]: 24.3 µM
COc1cc2c(cc1OC)C1C=NC(C(=O)O)(C2)c2ccccc21 (stereo unspecified),–,–,> 100 µM,–,–,–,> 100 µM,–,> 100,–
O=C1NC(=O)C2C(=O)NC(=O)C1C2(c1ccccc1)c1ccc(Cl)cc1 (stereo unspecified),–,> 100 µM,> 100 µM,–,–,–,> 100 µM,–,> 100,–
O=C1c2ccccc2-c2c1c1cc3c(cc1c(=O)n2CCCCl)OCO3,75.3 µM,–,–,> 100 µM,> 100 µM,> 100 µM,–,> 100 µM,–,GI50 [1]: 24.7 µM; GI50 [4]: > 100 µM; GI50 [5]: > 100 µM; GI50 [6]: 29.4 µM; GI50 [8]: > 100 µM; TGI [8]: > 100 µM; GI50 [9]: 45.9 µM
O=C(O)/C=C/C(=O)Nc1ncn[nH]1,> 100 µM,–,–,> 100 µM,> 100 µM,> 100 µM,–,> 100 µM,–,TGI [8]: > 100 µM
CN(C)c1ccc(/C=C2\C[N+](C)(C)C/C(=C\c3ccc(N(C)C)cc3)C2=O)cc1,36.7 µM,–,30.3 µM,> 100 µM,46.6 µM,30 µM,18.5 µM,34.3 µM,> 95.8,TGI [8]: > 100 µM
N#Cc1cnn2ccn(C3OC(COC(=O)c4ccccc4)C(OC(=O)c4ccccc4)C3OC(=O)c3ccccc3)c12 (stereo unspecified),> 21.5 µM,–,–,> 21.5 µM,21.5 µM,> 21.5 µM,–,> 100 µM,–,TGI [8]: 21.5 µM
C[Si](C)(C)c1ccc(CC2(Cc3ccc([Si](C)(C)C)cc3)CCNC2)cc1,–,–,3.64 µM,–,–,–,3.42 µM,–,8.87,–
O=[N+]([O-])c1ccc(NSc2ccccc2)cc1,–,95.3 µM,–,–,–,–,33.7 µM,–,> 100,–
OCc1c(-c2cccc3ccccc23)sc(-c2cccc3ccccc23)c1CO,–,19.3 µM,29.4 µM,–,–,–,28.5 µM,–,31.5,–
